Experimental data published in publication PMC5865150, “Structure and evolution of the Fam20 kinases” (Nature Communications, 2018).

Legend:
[1] = molecular target: T1, aqFam20 (Amphimedon queenslandica, UniProt A0A1X7UVU4); assay: […] incorporation from [γ-32P]ATP, Sep-Pak C18, scintillation counting; format: biochemical; settings: 100 uM Gal-Xyl-benzyl, 100 uM ATP, 10 mM MnCl2, pH 7.5, 30 °C
T1 construct: gene 100636703; residues 31-418, His6-MBP fusion secreted from High Five insect cells, cloned from cDNA library; monomer
T1 sequence (A0A1X7UVU4 entry or part of it): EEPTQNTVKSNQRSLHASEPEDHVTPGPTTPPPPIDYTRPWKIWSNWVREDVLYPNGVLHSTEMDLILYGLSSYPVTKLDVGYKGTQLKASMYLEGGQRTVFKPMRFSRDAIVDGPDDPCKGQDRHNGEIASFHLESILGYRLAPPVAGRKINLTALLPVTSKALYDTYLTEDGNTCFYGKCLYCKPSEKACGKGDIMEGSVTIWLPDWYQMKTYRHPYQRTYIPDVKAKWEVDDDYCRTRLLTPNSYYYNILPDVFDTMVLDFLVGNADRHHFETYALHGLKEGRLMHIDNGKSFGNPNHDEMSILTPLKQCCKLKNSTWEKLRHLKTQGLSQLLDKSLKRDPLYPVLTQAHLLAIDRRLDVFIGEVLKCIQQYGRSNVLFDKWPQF

[2] = molecular target: T2, human Fam20B (hsFam20B) (Homo sapiens, UniProt O75063); assay: as above; format: biochemical; settings: 100 uM Gal-Xyl-benzyl, 100 uM ATP, 10 mM MnCl2, pH 7.5, 30 °C
T2 construct: residues 55-402, His6-MBP fusion secreted from High Five insect cells, Ni-NTA; monomer
T2 sequence (O75063 55-402): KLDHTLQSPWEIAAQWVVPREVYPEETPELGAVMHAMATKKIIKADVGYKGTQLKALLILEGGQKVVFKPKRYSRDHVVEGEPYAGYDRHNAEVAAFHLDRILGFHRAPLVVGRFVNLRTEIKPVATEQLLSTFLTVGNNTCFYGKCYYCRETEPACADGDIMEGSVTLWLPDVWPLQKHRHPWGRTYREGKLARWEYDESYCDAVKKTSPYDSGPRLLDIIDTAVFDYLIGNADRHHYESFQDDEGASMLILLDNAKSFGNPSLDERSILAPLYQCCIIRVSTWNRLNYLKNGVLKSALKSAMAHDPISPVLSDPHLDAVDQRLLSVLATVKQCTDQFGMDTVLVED

[3] = molecular target: T3, hmFam20 (Hydra vulgaris, UniProt A0ABM4BCH6); assay: X-ray crystal structure, […] Å; settings: co-crystallised with 2 mM Gal-Xyl-benzyl, 5 mM AMP-PNP, 10 mM MgCl2, pH 6.9; pocket next to the ATP-binding site; also phosphorylated by this enzyme (Figure 5b)
T3 construct: gene LOC100203383; residues 55-415, codon-optimized synthetic gene, High Five cells; for crystals His6-MBP removed with TEV and N-glycans trimmed with endoglycosidase F3; monomer
T3 sequence (A0ABM4BCH6 entry or part of it): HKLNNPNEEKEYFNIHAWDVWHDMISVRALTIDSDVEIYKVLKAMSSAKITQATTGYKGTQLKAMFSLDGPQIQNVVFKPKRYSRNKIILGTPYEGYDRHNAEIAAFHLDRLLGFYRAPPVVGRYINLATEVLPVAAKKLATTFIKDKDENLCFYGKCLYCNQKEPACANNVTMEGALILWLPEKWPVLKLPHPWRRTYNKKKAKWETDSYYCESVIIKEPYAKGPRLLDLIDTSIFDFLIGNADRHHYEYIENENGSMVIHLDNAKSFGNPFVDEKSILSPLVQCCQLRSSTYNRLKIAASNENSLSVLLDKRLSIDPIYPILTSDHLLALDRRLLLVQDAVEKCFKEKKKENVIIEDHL

[4] = molecular target: T4, human Fam20B (hsFam20B) (Homo sapiens, UniProt O75063, K312R); assay: […] incorporation from [γ-32P]ATP, Sep-Pak C18, scintillation counting; format: biochemical; settings: 100 uM Gal-Xyl-benzyl, 100 uM ATP, 10 mM MnCl2, pH 7.5, 30 °C; mutant activity completely abolished
T4 construct: residues 55-402, His6-MBP fusion secreted from High Five insect cells, Ni-NTA; monomer
T4 sequence (O75063 55-402 K312R): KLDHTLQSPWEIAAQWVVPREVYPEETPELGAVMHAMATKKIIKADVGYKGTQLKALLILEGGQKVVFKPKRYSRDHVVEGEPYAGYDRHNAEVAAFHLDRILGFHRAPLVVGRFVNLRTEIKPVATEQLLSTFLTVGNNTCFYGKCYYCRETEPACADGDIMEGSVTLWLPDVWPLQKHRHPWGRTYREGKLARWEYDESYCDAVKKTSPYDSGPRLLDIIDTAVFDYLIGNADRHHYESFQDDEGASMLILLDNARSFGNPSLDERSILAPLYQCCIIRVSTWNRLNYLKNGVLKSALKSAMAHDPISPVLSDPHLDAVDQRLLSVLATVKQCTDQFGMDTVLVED

[5] = molecular target: T5, human Fam20A−Fam20C complex (Homo sapiens, UniProt Q96MK3); assay: X-ray crystal structure, […] Å; format: binding; settings: 0.25 mM ATP; ATP-1 bound to Fam20A in inverted orientation; ATP-2 bound to Fam20A at a second site, possibly a crystallization artifact
T5 construct: Fam20A residues 69-529 and Fam20C residues 63-584, High Five cells, His6-MBP tags removed with TEV; heterodimer in crystal; with Extracellular serine/threonine protein kinase FAM20C
T5 sequence (Q96MK3 69-529): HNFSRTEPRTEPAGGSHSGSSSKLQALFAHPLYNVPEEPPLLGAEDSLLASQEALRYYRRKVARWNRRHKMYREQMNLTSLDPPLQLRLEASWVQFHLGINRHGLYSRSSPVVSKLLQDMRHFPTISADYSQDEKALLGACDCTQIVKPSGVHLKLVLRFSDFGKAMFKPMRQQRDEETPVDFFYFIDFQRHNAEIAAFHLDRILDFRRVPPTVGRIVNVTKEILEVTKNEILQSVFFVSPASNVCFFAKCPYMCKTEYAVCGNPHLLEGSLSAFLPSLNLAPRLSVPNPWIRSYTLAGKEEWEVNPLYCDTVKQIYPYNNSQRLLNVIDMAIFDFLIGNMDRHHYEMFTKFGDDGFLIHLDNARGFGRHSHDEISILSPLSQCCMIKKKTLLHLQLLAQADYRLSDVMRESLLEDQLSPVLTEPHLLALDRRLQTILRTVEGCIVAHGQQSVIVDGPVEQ
T5 sequence (Q8IXL6 63-584 partner): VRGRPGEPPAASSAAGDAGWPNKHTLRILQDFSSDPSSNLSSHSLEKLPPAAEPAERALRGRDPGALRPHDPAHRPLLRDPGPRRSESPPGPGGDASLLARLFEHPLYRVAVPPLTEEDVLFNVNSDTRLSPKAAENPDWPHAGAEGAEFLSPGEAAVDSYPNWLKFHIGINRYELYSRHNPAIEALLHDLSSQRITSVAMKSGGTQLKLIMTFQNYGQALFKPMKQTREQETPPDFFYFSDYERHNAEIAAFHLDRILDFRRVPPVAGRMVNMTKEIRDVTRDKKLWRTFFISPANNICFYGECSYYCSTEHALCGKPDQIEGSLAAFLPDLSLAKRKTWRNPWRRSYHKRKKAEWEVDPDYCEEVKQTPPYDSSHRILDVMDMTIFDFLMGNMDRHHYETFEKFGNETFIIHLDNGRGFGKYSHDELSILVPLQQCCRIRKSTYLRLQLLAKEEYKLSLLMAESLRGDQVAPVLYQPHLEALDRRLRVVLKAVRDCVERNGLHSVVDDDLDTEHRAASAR

[6] = molecular target: T6, Fam20A−drFam20C complex (Homo sapiens, UniProt Q96MK3); assay: X-ray crystal structure, […] Å; format: binding; settings: 0.25 mM ATP; ATP-1 bound to Fam20A in inverted orientation
T6 construct: human Fam20A residues 69-529 with zebrafish Fam20C residues 124-560, High Five cells, His6-MBP tags removed with TEV; heterotetramer; with Extracellular serine/threonine protein kinase FAM20C (Danio rerio)
T6 sequence (Q96MK3 69-529): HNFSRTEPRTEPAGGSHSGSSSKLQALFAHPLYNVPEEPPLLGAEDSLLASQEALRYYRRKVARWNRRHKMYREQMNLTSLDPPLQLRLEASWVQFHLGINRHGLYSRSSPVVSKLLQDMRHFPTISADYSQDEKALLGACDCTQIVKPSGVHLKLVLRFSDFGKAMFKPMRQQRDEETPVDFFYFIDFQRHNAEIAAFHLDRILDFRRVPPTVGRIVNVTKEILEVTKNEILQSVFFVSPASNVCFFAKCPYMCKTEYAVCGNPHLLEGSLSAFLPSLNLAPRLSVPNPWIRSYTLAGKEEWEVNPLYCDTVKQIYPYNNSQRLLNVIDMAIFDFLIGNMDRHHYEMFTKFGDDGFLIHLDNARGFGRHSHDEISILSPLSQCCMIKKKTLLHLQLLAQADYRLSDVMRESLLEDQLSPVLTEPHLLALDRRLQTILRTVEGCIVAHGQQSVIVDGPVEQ
T6 sequence (E7FBB8 26-545 partner): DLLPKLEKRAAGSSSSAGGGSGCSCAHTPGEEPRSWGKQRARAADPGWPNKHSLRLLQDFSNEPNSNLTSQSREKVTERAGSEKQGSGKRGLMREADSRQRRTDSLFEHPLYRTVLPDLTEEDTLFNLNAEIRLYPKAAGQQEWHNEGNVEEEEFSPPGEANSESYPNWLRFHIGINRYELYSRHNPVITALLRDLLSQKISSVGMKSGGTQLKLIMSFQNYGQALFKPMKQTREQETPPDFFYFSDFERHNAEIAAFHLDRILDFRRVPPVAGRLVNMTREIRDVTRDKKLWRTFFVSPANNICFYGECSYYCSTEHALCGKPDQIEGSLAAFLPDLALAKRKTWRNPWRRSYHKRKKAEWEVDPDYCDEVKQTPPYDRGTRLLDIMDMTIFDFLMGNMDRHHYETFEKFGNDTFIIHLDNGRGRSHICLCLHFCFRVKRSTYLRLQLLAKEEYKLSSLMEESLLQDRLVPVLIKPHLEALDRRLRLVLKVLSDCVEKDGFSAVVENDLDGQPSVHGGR

[7] = molecular target: T7, human Fam20C (residues 63-584), untagged (human, UniProt Q8IXL6 63-584); assay: crystal structure; human Fam20A-Fam20C complex, formed with 0.25 mM ATP and purified by size exclusion; crystals at 20 °C in 2% 1,4-dioxane, 0.1 M Bicine pH 9.0, 9% PEG 20,000; settings: both partners purified
T7 construct: human Fam20C, residues 63-584; also called hsFam20C; source: High Five insect cells (baculovirus), conditioned medium, purified (Ni-NTA, TEV digestion, Resource Q, size exclusion); not shown: His6, N-terminal, cleaved; MBP, N-terminal, cleaved
T7 sequence (looked up): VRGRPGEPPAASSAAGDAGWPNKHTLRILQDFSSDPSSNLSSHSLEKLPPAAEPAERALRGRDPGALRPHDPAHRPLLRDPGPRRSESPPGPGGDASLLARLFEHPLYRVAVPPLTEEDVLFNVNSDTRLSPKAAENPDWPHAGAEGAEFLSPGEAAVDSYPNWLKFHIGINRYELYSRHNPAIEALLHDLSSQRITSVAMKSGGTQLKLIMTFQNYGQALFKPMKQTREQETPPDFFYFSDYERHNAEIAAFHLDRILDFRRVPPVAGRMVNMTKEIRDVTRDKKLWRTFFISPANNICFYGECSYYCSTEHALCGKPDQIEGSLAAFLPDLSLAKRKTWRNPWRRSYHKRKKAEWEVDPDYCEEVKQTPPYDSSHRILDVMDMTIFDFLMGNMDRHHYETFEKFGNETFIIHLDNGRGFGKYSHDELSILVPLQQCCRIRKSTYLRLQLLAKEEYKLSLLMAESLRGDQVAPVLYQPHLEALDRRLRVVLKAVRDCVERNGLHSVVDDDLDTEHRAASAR

## OC[C@H]1O[C@@H](O[C@@H]2CO[C@@H](OCc3ccccc3)[C@H](O)[C@H]2O)[C@H](O)[C@@H](O)[C@H]1O [Gal-Xyl, Galβ1-4Xylβ1-O-benzyl]
[1]
  32P incorporation from [γ-32P]ATP, Sep-Pak C18, scintillation counting: sponge (aqFam20) and hydra (hmFam20) phosphorylate the Gal-Xyl disaccharide
[2]
  32P incorporation from [γ-32P]ATP, Sep-Pak C18, scintillation counting: phosphorylate the Gal-Xyl disaccharide with efficiencies similar to human Fam20B (hsFam20B)
[3]
  X-ray crystal structure, 2.85 Å: we also determined the structure of hmFam20 in complex with Gal-Xyl
[4]
  32P incorporation from [γ-32P]ATP, Sep-Pak C18, scintillation counting: in human Fam20B (K312R, Fig. 6c) completely abolishes kinase activity

## Nc1ncnc2c1ncn2[C@@H]1O[C@H](COP(=O)(O)OP(=O)(O)OP(=O)(O)O)[C@@H](O)[C@H]1O [ATP]
[5]
  X-ray crystal structure, 3.30 Å: In both structures, an ATP molecule (ATP-1) is bound to Fam20A in an inverted orientation
[6]
  X-ray crystal structure, 3.55 Å: In both structures, an ATP molecule (ATP-1) is bound to Fam20A in an inverted orientation

B1: human Fam20A (residues 69-529), untagged (domain or fragment, UniProt Q96MK3 69-529, looked up)
chain: HNFSRTEPRTEPAGGSHSGSSSKLQALFAHPLYNVPEEPPLLGAEDSLLASQEALRYYRRKVARWNRRHKMYREQMNLTSLDPPLQLRLEASWVQFHLGINRHGLYSRSSPVVSKLLQDMRHFPTISADYSQDEKALLGACDCTQIVKPSGVHLKLVLRFSDFGKAMFKPMRQQRDEETPVDFFYFIDFQRHNAEIAAFHLDRILDFRRVPPTVGRIVNVTKEILEVTKNEILQSVFFVSPASNVCFFAKCPYMCKTEYAVCGNPHLLEGSLSAFLPSLNLAPRLSVPNPWIRSYTLAGKEEWEVNPLYCDTVKQIYPYNNSQRLLNVIDMAIFDFLIGNMDRHHYEMFTKFGDDGFLIHLDNARGFGRHSHDEISILSPLSQCCMIKKKTLLHLQLLAQADYRLSDVMRESLLEDQLSPVLTEPHLLALDRRLQTILRTVEGCIVAHGQQSVIVDGPVEQ
notes: human Fam20A, pseudokinase, residues 69-529; Crystallised and kept with 0.25 mM ATP; also called hsFam20A; source: High Five insect cells (baculovirus), conditioned medium, purified (Ni-NTA, TEV digestion, Resource Q, size exclusion); not shown: His6, N-terminal, cleaved; MBP, N-terminal, cleaved
[7]
  binding result: binds
